Experimental data published in patent publication EP2657347A1, “Electrochemical competitive assay and use thereof” (Université Paris Diderot - Paris 7, priority 2012, dated 2013).

Tests used:
[1] = molecular target: anti-L-tyrosinamide aptamer; conditions: previously determined by isothermal titration calorimetry; cited from earlier work
[2] = tested on: 49-mer scramble oligonucleotide; test: Redox-mediated catalytic cyclic voltammetry titration with random DNA control; assay type: binding; conditions: random sequence with the same GC ratio
Method: 2-Amino-1,3-propanediol hydrochloride (Aldrich), 2-amino-1,3-propanediol (Aldrich), NaCl (Fluka), MgCl2 (Sigma), 1-tyrosinamide (Aldrich), d-tyrosinamide (Millegen, France), paracetamol (Aldrich) and tyrosine (Sigma), triphenylphosphine (Aldrich), diethylazidocarboxylate solution (DEAD) (Aldrich), and ferrocene methanol (Aldrich) were used without further purification. All syntheses were performed with freshly distilled solvents (THF and MeOH). The oligonucleotides (1-DNA and d-DNA) were synthesized and HPLC-purified by Eurogentec (Anger, France) and their concentration was controlled by UV-Vis spectroscopy using a Nanodrop 2000 spectrophotometer (ThermoFisher). The oligonucleotides sequences were: • Apt49-T: (SEQ ID NO: 1) 5'-[…] ― 3' • Scramble: (SEQ ID NO: 2) 5'- […] ― 3'
All experiments were performed in 5 mM Tris buffer (pH 7) containing 10 mM MgCl2 and 50 mM NaCl (Recognition Buffer, RBr). The L-Tym concentration is always 5 µM. For cyclic voltammetric experiments, 1 µM [Os(bpy)3]2+ with 5 µM 1-Tym in a droplet of 50 µL RBr was used. So, before each experiment, the droplet is shaking with a micropipette. This procedure is repeated until we obtain a reproducible and stable voltammogram. Mother solution of Fc-1-Tym was a […] solution in DMF. This product is conserved at 4°C and seal with parafilm. […]

D-Apt49 = test: Redox-mediated catalytic cyclic voltammetry titration with aptamer; assay type: binding
Method: All experiments were performed in 5 mM Tris buffer (pH 7) containing 10 mM MgCl2 and 50 mM NaCl (Recognition Buffer, RBr). The L-Tym concentration is always 5 µM. For cyclic voltammetric experiments, 1 µM [Os(bpy)3]2+ with 5 µM 1-Tym in a droplet of 50 µL RBr was used. So, before each experiment, the droplet is shaking with a micropipette. This procedure is repeated until we obtain a reproducible and stable voltammogram. Mother solution of Fc-1-Tym was a […] solution in DMF. This product is conserved at 4°C and seal with parafilm. Before each experiment, this solution is diluted 10 times in stabilized DMF, such as 0.2 µL in 50 µL of RBr leads to 5 µM of Fc-1-Tym.
Cyclic voltammetry measurements were performed with an AUTOLAB PGSTAT 12 potentiostat/galvanostat controlled by computer, and the data were acquired using GPES 4.9007 software (EcoChemie, The Netherlands). Small self-contained electrochemical cells made of 3 screen-printed electrodes on a flat substrate were used for all experiments. The electrodes were printed using a DEK model-65 screen-printer. Working electrodes were 4 mm diameter screen-printed carbon electrodes prepared using a commercial carbon ink (Electrodag PF-470 A) deposited on the top of an underlying Ag layer (Electrodag 418 SS). Counter electrode was obtained using an Ag ink (Electrodag 418 SS).
Before experiments, the screen-printed carbon electrodes were coated with bovine serum albumin (BSA) by immersing the electrodes in a 1 mg/mL BSA solution for 10 minutes at room temperature. The BSA-modified electrodes were next cycled between 0 V and 0.8 V at v = 0.05 V/s, until of the capacitive background current in cyclic voltammetry was stablized.
The 49-mer aptamer we have used (see here above) is a sequence similar to the one that was previously selected by Vianini et al and successfully applied to chromatographic- and fluorescence-based L-Tym assays. Since direct electrochemical oxidation of phenolic compounds generally leads to electrode passivation and thus to poorly reproducible anodic peak current in cyclic voltammetry (CV), the electrochemical detection of L-Tym was performed by redox-mediated catalytic oxidation of the phenolic function. For such a purpose, we have used the one-electron redox mediator couple [Os^III/II(bpy)3]^3+/2+ which, according to its relatively high standard potential (E^0=+0.58 V vs. Ag/AgCl), is capable to efficiently catalyze the oxidation of phenolic compounds. [drawing 51]
The linear dependence of the peak current with both the square root of scan rate, v, and L-Tym concentration, indicates conditions of total catalysis for which the catalytic peak current response, ip, can be expressed by eq 1. ip = 0.609nFSCT^0 sqrt(DT)sqrt(fv/RT) [formula] where n is the number of electron involved in the catalytic reaction, F the Faraday constant, S the electrode area, C^0T the bulk concentration of L-Tym, and DT the diffusion coefficient of L-Tym. After aptamer addition, the binding reaction (eq 2) is rapidly set at equilibrium. [drawing 53] with Kd the dissociation constant. On the basis of a classical law of action mass and mass balance (i.e., C^0T = CT + CRT, with CT and CRT the free and receptor-bound target concentrations), and assuming a 1:1 binding stoichiometry, the free (χƒ) mole fraction of target in the bulk solution can thus be estimated by eq 3. χf = (CT)/(CT^0) = 1-(Kd + CT^0 + CR^0 -sqrt(((Kd+CT^0+CR^0))^2 -4CT^0 CR^0))/(2CT^0) [formula]
Here, C^0R is the total concentration of the aptamer receptor added to the solution. Under the assumption of a slow interconversion of free and bound target on the time scale of CV experiments, the catalytic peak current can thus be expressed by a linear combination of the catalytic currents related to the free and bound target through eq 4. ip = 0.609nFSCT^0 sqrt(fv/RT)[χfsqrt(DT)+(1-χf)sqrt(DRT)] [formula] where DT and DRT are the diffusion coefficients of the free and receptor-bound target, respectively. […]

Kd (D-Apt49; 5 µM target, 1 µM [Os(bpy)3]2+, 5 mM Tris buffer pH 7.0, 50 mM NaCl, 10 mM MgCl2, nonlinear fit of eq 5): 2900 ± 300 nM
DRT (diffusion coefficient of the receptor-bound target) (D-Apt49; L-Tym bound to D-Apt49, assuming one electron exchanged): 1.4 × 10^-6 cm^2 s^-1
DT (diffusion coefficient of the free target) (D-Apt49; free L-Tym, assuming one electron exchanged): 7 × 10^-6 cm^2 s^-1
SMILES: NC(=O)[C@@H](N)Cc1ccc(O)cc1 [L-Tym, L-tyrosinamide]
Kd [1]: 1750 to 3200 nM
current response when the aptamer was replaced by a 49-mer random DNA sequence [2]: no significant current response decrease
